Test results from PubChem BioAssay (NCI).
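1) Cells in 96-well plates. 2) Compound, 48 h, 5 concentrations. 3) Linear interpolation between surrounding doses. 4) Unreached endpoint = highest concentration. At the TGI there is no net growth.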

What follows are molecules tested on SK-MEL-28 melanoma (assay: growth of human tumour cells (NCI), 48 h).
Molecule CCN1C(=O)N(C)C(O)c2c1nc1ccccn1c2=O (stereo not given) has a TGI of 77.6 µM. Cc1cc(NS(=O)(=O)c2ccc(Nc3c4ccccc4nc4c(C(=O)Nc5ccc(S(N)(=O)=O)cc5)cccc34)cc2)no1 gave a TGI of 83.9 µM. With CCCCc1c2c(nc3c1CCCC3=O)C(=O)CCC2 the TGI was greater than 100 µM. In the case of CNc1ccc(/C=C2\C=Cc3ccccc32)cc1, the TGI was greater than 100 µM.

What follows are molecules tested on SK-MEL-5 melanoma (assay: growth of human tumour cells (NCI), 48 h).
With CN(C)c1nc(=Nc2ccc3c(c2)OCO3)ss1 the TGI was greater than 100 µM. In the case of Cc1cc(NS(=O)(=O)c2ccc(Nc3c4ccccc4nc4c(C(=O)Nc5ccc(S(N)(=O)=O)cc5)cccc34)cc2)no1, the TGI was greater than 100 µM. Molecule CCCCc1c2c(nc3c1CCCC3=O)C(=O)CCC2 has a TGI greater than 100 µM. For CNc1ccc(/C=C2\C=Cc3ccccc32)cc1, the TGI was 54.3 µM.

What follows are molecules tested on SK-OV-3 ovarian (assay: growth of human tumour cells (NCI), 48 h).
With CN(C)c1nc(=Nc2ccc3c(c2)OCO3)ss1 the TGI was greater than 100 µM. CCN1C(=O)N(C)C(O)c2c1nc1ccccn1c2=O (stereo not given) was tested, and the TGI was 59.4 µM. Cc1cc(NS(=O)(=O)c2ccc(Nc3c4ccccc4nc4c(C(=O)Nc5ccc(S(N)(=O)=O)cc5)cccc34)cc2)no1 gave a TGI greater than 100 µM. Molecule CCCCc1c2c(nc3c1CCCC3=O)C(=O)CCC2 has a TGI greater than 100 µM. CNc1ccc(/C=C2\C=Cc3ccccc32)cc1 was tested, and the TGI was greater than 100 µM.

Each molecule was assayed on SN12C renal (assay: growth of human tumour cells (NCI), 48 h).
With CN(C)c1nc(=Nc2ccc3c(c2)OCO3)ss1 the TGI was greater than 100 µM. CCN1C(=O)N(C)C(O)c2c1nc1ccccn1c2=O (stereo not given) was tested, and the TGI was 64 µM. Cc1cc(NS(=O)(=O)c2ccc(Nc3c4ccccc4nc4c(C(=O)Nc5ccc(S(N)(=O)=O)cc5)cccc34)cc2)no1 gave a TGI greater than 100 µM. For CCCCc1c2c(nc3c1CCCC3=O)C(=O)CCC2, the TGI was greater than 100 µM. CNc1ccc(/C=C2\C=Cc3ccccc32)cc1 showed a TGI greater than 100 µM.

These molecules were tested on SNB-19 CNS (assay: growth of human tumour cells (NCI), 48 h).
In the case of CN(C)c1nc(=Nc2ccc3c(c2)OCO3)ss1, the TGI was greater than 100 µM. For CCN1C(=O)N(C)C(O)c2c1nc1ccccn1c2=O (stereo not given), the TGI was greater than 100 µM. Cc1cc(NS(=O)(=O)c2ccc(Nc3c4ccccc4nc4c(C(=O)Nc5ccc(S(N)(=O)=O)cc5)cccc34)cc2)no1 was tested, and the TGI was 84.9 µM. For CCCCc1c2c(nc3c1CCCC3=O)C(=O)CCC2, the TGI was greater than 100 µM. CNc1ccc(/C=C2\C=Cc3ccccc32)cc1 was tested, and the TGI was greater than 100 µM.

The molecules below were run on SNB-75 CNS (assay: growth of human tumour cells (NCI), 48 h).
CN(C)c1nc(=Nc2ccc3c(c2)OCO3)ss1 was tested, and the TGI was 66 µM. For CCN1C(=O)N(C)C(O)c2c1nc1ccccn1c2=O (stereo not given), the TGI was 56.7 µM. Cc1cc(NS(=O)(=O)c2ccc(Nc3c4ccccc4nc4c(C(=O)Nc5ccc(S(N)(=O)=O)cc5)cccc34)cc2)no1 gave a TGI greater than 100 µM. With CCCCc1c2c(nc3c1CCCC3=O)C(=O)CCC2 the TGI was greater than 100 µM.

What follows are molecules tested on SNB-78 CNS (assay: growth of human tumour cells (NCI), 48 h).
With CN(C)c1nc(=Nc2ccc3c(c2)OCO3)ss1 the TGI was greater than 100 µM. In the case of CCN1C(=O)N(C)C(O)c2c1nc1ccccn1c2=O (stereo not given), the TGI was 82.5 µM. Cc1cc(NS(=O)(=O)c2ccc(Nc3c4ccccc4nc4c(C(=O)Nc5ccc(S(N)(=O)=O)cc5)cccc34)cc2)no1 gave a TGI of 60 µM. For CCCCc1c2c(nc3c1CCCC3=O)C(=O)CCC2, the TGI was greater than 100 µM. CNc1ccc(/C=C2\C=Cc3ccccc32)cc1 was tested, and the TGI was greater than 100 µM.

What follows are molecules tested on SR leukemia (assay: growth of human tumour cells (NCI), 48 h).
CCN1C(=O)N(C)C(O)c2c1nc1ccccn1c2=O (stereo not given) showed a TGI greater than 100 µM. Molecule CCCCc1c2c(nc3c1CCCC3=O)C(=O)CCC2 has a TGI greater than 100 µM. In the case of CNc1ccc(/C=C2\C=Cc3ccccc32)cc1, the TGI was greater than 100 µM.

These molecules were tested on SW-620 colon (assay: growth of human tumour cells (NCI), 48 h).
Molecule CN(C)c1nc(=Nc2ccc3c(c2)OCO3)ss1 has a TGI greater than 100 µM. Work on CCN1C(=O)N(C)C(O)c2c1nc1ccccn1c2=O (stereo not given) yielded a TGI greater than 100 µM. In the case of Cc1cc(NS(=O)(=O)c2ccc(Nc3c4ccccc4nc4c(C(=O)Nc5ccc(S(N)(=O)=O)cc5)cccc34)cc2)no1, the TGI was greater than 100 µM. For CCCCc1c2c(nc3c1CCCC3=O)C(=O)CCC2, the TGI was greater than 100 µM. With CNc1ccc(/C=C2\C=Cc3ccccc32)cc1 the TGI was greater than 100 µM.

The molecules below were run on TK-10 renal (assay: growth of human tumour cells (NCI), 48 h).
For CN(C)c1nc(=Nc2ccc3c(c2)OCO3)ss1, the TGI was greater than 100 µM. Molecule CCN1C(=O)N(C)C(O)c2c1nc1ccccn1c2=O (stereo not given) has a TGI of 60.4 µM. In the case of Cc1cc(NS(=O)(=O)c2ccc(Nc3c4ccccc4nc4c(C(=O)Nc5ccc(S(N)(=O)=O)cc5)cccc34)cc2)no1, the TGI was greater than 100 µM. Molecule CCCCc1c2c(nc3c1CCCC3=O)C(=O)CCC2 has a TGI greater than 100 µM. CNc1ccc(/C=C2\C=Cc3ccccc32)cc1 gave a TGI of 54.6 µM.

These molecules were tested on U251 CNS (assay: growth of human tumour cells (NCI), 48 h).
With CN(C)c1nc(=Nc2ccc3c(c2)OCO3)ss1 the TGI was greater than 100 µM. With CCN1C(=O)N(C)C(O)c2c1nc1ccccn1c2=O (stereo not given) the TGI was greater than 100 µM. In the case of Cc1cc(NS(=O)(=O)c2ccc(Nc3c4ccccc4nc4c(C(=O)Nc5ccc(S(N)(=O)=O)cc5)cccc34)cc2)no1, the TGI was 57.4 µM. CCCCc1c2c(nc3c1CCCC3=O)C(=O)CCC2 gave a TGI greater than 100 µM. CNc1ccc(/C=C2\C=Cc3ccccc32)cc1 was tested, and the TGI was greater than 100 µM.

What follows are molecules tested on UACC-257 melanoma (assay: growth of human tumour cells (NCI), 48 h).
In the case of CN(C)c1nc(=Nc2ccc3c(c2)OCO3)ss1, the TGI was greater than 100 µM. For CCN1C(=O)N(C)C(O)c2c1nc1ccccn1c2=O (stereo not given), the TGI was greater than 100 µM. For Cc1cc(NS(=O)(=O)c2ccc(Nc3c4ccccc4nc4c(C(=O)Nc5ccc(S(N)(=O)=O)cc5)cccc34)cc2)no1, the TGI was greater than 100 µM. For CCCCc1c2c(nc3c1CCCC3=O)C(=O)CCC2, the TGI was greater than 100 µM. In the case of CNc1ccc(/C=C2\C=Cc3ccccc32)cc1, the TGI was greater than 100 µM.

What follows are molecules tested on UACC-62 melanoma (assay: growth of human tumour cells (NCI), 48 h).
With CN(C)c1nc(=Nc2ccc3c(c2)OCO3)ss1 the TGI was greater than 100 µM. CCN1C(=O)N(C)C(O)c2c1nc1ccccn1c2=O (stereo not given) gave a TGI of 1.98 µM. Work on Cc1cc(NS(=O)(=O)c2ccc(Nc3c4ccccc4nc4c(C(=O)Nc5ccc(S(N)(=O)=O)cc5)cccc34)cc2)no1 yielded a TGI of 55.8 µM. Work on CCCCc1c2c(nc3c1CCCC3=O)C(=O)CCC2 yielded a TGI greater than 100 µM. CNc1ccc(/C=C2\C=Cc3ccccc32)cc1 was tested, and the TGI was 71.9 µM.

These molecules were tested on UO-31 renal (assay: growth of human tumour cells (NCI), 48 h).
For CN(C)c1nc(=Nc2ccc3c(c2)OCO3)ss1, the TGI was 83.3 µM. CCN1C(=O)N(C)C(O)c2c1nc1ccccn1c2=O (stereo not given) gave a TGI greater than 100 µM. Cc1cc(NS(=O)(=O)c2ccc(Nc3c4ccccc4nc4c(C(=O)Nc5ccc(S(N)(=O)=O)cc5)cccc34)cc2)no1 was tested, and the TGI was greater than 100 µM. CCCCc1c2c(nc3c1CCCC3=O)C(=O)CCC2 was tested, and the TGI was greater than 100 µM. CNc1ccc(/C=C2\C=Cc3ccccc32)cc1 gave a TGI of 30.5 µM.

The molecules below were run on XF 498 CNS (assay: growth of human tumour cells (NCI), 48 h).
Molecule CN(C)c1nc(=Nc2ccc3c(c2)OCO3)ss1 has a TGI greater than 100 µM. For CCN1C(=O)N(C)C(O)c2c1nc1ccccn1c2=O (stereo not given), the TGI was 83.4 µM. Cc1cc(NS(=O)(=O)c2ccc(Nc3c4ccccc4nc4c(C(=O)Nc5ccc(S(N)(=O)=O)cc5)cccc34)cc2)no1 showed a TGI of 57.9 µM. CCCCc1c2c(nc3c1CCCC3=O)C(=O)CCC2 showed a TGI greater than 100 µM. CNc1ccc(/C=C2\C=Cc3ccccc32)cc1 showed a TGI greater than 100 µM.
